# Biological target: T1, NLRP3 inflammasomes (Homo sapiens, UniProt Q96P20)
# T1 construct: endogenous in cells; host or cells: THP-1 human monocytic cells, PMA-differentiated, LPS-primed, nigericin-stimulated
# Experiment: THP-1 pyroptosis test (cell pyroptosis test)
# Type: cell-based
# Conditions: THP-1 cells differentiated with PMA, LPS stimulation, 10 μM nigericin, drug 0.001-10 μM, MTT absorbance 562 nm
# Experimental: In vitro activity screening was performed on small molecule compounds targeting inhibition on NLRP3 inflammasomes using THP-1 human monocytic cells (THP-1). THP-1 can be induced to differentiate into macrophages by phorbol ester (PMA), and the macrophages M1 can be induced to polarize by lipopolysaccharide (LPS) to release cytokines such as TNF-α, and IL-6, so as to establish a typical inflammatory model.
# THP-1 cells in a logarithmic growth phase were collected to prepare a 1×10^6 cells/mL cell suspension, PMA was added to achieve a final concentration of 300 ng/mL in the cell suspension, then 1×10^5 cells were inoculated to each well of a 96-well plate, and the cells were cultured in a 37° C., 5% CO2 cell incubator for 24 hours and induced to differentiate into macrophages.
# The next day, LPS was added to stimulate and induce the cells to produce an inflammatory model. […] In the 200 μL system of the 96-well plate, the final concentration of each drug was 0.001-10 μM, and the final concentration of the nigericin was 10 μM.
# Cell apoptosis protection rate=[(X−C0)/(C−C0)]×100%
# wherein, C, C0 and X represent average absorbance values of the normal cell group, the blank control group, and the drug treatment group, respectively. Finally, cell survival curves were fitted by Graphpad Prism 5.0 software and EC50 values of the compounds to be tested in inhibiting pyroptosis caused by NLRP3 inflammasomes were calculated.
# T1 sequence (Q96P20 whole entry): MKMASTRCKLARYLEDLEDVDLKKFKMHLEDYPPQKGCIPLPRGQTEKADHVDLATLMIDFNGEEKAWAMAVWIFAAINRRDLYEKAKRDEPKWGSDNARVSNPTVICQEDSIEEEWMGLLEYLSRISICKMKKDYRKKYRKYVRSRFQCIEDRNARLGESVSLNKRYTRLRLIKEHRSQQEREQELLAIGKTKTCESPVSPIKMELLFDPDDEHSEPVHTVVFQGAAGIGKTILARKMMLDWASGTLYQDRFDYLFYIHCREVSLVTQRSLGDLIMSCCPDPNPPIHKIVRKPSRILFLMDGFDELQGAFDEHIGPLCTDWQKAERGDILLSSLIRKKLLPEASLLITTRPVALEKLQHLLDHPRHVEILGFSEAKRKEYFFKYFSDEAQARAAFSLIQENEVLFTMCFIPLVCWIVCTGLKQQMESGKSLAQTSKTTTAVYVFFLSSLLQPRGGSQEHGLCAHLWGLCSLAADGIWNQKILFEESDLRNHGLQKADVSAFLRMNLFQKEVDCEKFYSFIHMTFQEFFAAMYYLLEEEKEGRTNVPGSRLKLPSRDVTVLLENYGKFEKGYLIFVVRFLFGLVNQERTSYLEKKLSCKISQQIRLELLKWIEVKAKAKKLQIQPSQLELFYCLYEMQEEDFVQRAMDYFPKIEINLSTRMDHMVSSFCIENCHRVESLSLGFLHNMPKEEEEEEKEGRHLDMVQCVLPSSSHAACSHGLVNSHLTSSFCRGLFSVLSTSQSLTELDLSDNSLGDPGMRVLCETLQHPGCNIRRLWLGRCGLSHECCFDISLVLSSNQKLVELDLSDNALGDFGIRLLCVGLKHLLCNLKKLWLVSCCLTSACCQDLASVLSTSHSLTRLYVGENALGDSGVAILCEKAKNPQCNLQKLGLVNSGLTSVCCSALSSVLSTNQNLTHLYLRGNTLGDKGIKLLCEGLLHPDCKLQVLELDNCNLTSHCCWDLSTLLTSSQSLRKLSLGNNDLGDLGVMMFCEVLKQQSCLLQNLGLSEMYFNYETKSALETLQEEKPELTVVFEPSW
row,Compound,EC50
1,"CC(C)(O)CNc1nnc(-c2ccc(C(F)(F)F)cc2O)c2ccccc12 [Compound 20, 2-(4-((2-hydroxy-2-methylpropyl)amino)phthalazin-1-yl)-5-(trifluoromethyl)phenol]",> 1 µM
2,CN1CCC[C@@H](Nc2nnc(-c3ccc(C(F)(F)F)cc3O)c3ccncc23)C1 [Compound 17],< 0.02 µM
3,"Oc1cc(C(F)(F)F)ccc1-c1nnc(N[C@@H]2CCCNC2)c2ccccc12 [Compound 22, (R)-2-(4-(piperidin-3-ylamino)phthalazin-1-yl)-5-(trifluoromethyl)phenol]",< 0.02 µM
4,CN1CCC(Nc2nnc(-c3ccc(F)cc3O)c3cnn(C)c23)CC1 [Compound 69],> 1 µM
5,"CN1CCC[C@@H](Nc2nnc(-c3ccc(C(F)(F)F)cc3O)c3ccc(P(C)(C)=O)cc23)C1 [Compound 43, (R)-(1-(2-hydroxy-4-(trifluoromethyl)phenyl)-4-((1-methylpiperidin-3-yl)amino)phthalazin-6-yl)dimethylphosphine oxide]",0.5 to 1 µM
6,"C[C@@H](Nc1nnc(-c2ccc(C(F)(F)F)cc2O)c2ccccc12)c1ccccn1 [Compound 12, (R)-2-(4-((1-(pyridin-2-yl)ethyl)amino)phthalazin-1-yl)-5-(trifluoromethyl)phenol]",> 1 µM
7,"C[C@H](Nc1nnc(-c2ccc(C(F)(F)F)cc2O)c2ccccc12)c1ccccn1 [Compound 13, (S)-2-(4-((1-(pyridin-2-yl)ethyl)amino)phthalazin-1-yl)-5-(trifluoromethyl)phenol]",> 1 µM
8,"Cc1ccc(O)c(-c2nnc(N[C@@H]3CCCN(C)C3)c3ccccc23)c1 [Compound 47, (R)-4-methyl-2-(4-((1-methylpiperidin-3-yl)amino)phthalazin-1-yl)phenol]",> 1 µM
9,"CCN1CCC[C@@H](Nc2nnc(-c3ccc(C(F)(F)F)cc3O)c3ccccc23)C1 [Compound 23, (R)-2-(4-((1-ethylpiperidin-3-yl)amino)phthalazin-1-yl)-5-(trifluoromethyl)phenol]",< 0.02 µM
10,"CN1CCC[C@@H](Nc2nnc(-c3ccc(C(F)(F)F)cc3O)c3ncn(C)c23)C1 [Compound 36, (R)-2-(1-methyl-7-((1-methylpiperidin-3-yl)amino)-1H-imidazo[4,5-d]pyridazin-4-yl)-5-(trifluoromethyl)phenol]",0.5 to 1 µM
11,CN1CCC[C@@H](Nc2nnc(-c3ccc(C(F)(F)F)cc3O)c3c2nc(C2CC2)n3C)C1 [Compound 59],< 0.02 µM
12,CN1CC(Nc2nnc(-c3ccc(C(F)(F)F)cc3O)c3ncn(C)c23)CCC1=O (centres unmarked) [Compound 81],> 1 µM
13,"COc1ccc2c(N[C@@H]3CCCN(C)C3)nnc(-c3ccc(C(F)(F)F)cc3O)c2c1 [Compound 5, (R)-2-(7-methoxy-4-((1-methylpiperidin-3-yl)amino)phthalazin-1-yl)-5-(trifluoromethyl)phenol]",< 0.02 µM
14,"Cc1ccc2c(N[C@@H]3CCCN(C)C3)nnc(-c3ccc(C(F)(F)F)cc3O)c2c1 [Compound 3, (R)-2-(7-methyl-4-((1-methylpiperidin-3-yl)amino)phthalazin-1-yl)-5-(trifluoromethyl)phenol]",< 0.02 µM
15,"CCN1CC[C@@H](Nc2nnc(-c3ccc(C(F)(F)F)cc3O)c3ccccc23)C1 [Compound 25, (R)-2-(4-((1-ethylpyrrolidin-3-yl)amino)phthalazin-1-yl)-5-(trifluoromethyl)phenol]",< 0.02 µM
16,CN1CCC[C@@H](Nc2nnc(-c3sccc3O)c3c2ncn3C)C1 [Compound 83],> 1 µM
17,CN1CCC(CNc2nnc(-c3ccc(C(F)(F)F)cc3O)c3c2cnn3C)CC1 [Compound 75],0.1 to 0.5 µM
18,"Cc1cnc2c(N[C@@H]3CCCN(C)C3)nnc(-c3ccccc3O)c2c1 [Compound 56, (R)-2-(3-methyl-8-((1-methylpiperidin-3-yl)amino)pyridino[2,3-d]pyridazin-5-yl)phenol]",< 0.02 µM
19,Cc1nc2c(N[C@@H]3CCCN(C)C3)nnc(-c3ccc(C(F)(F)F)cc3O)c2n1C [Compound 57],< 0.02 µM
20,Cn1cnc2c(-c3ccc(C(F)(F)F)cc3O)nnc(NCC3CCOCC3)c21 [Compound 80],> 1 µM
